Assay results as given in article PMC12467033, “Exploring the Inhibitory Potential of Six Porphyrin Compounds Against α-Amylase and α-Glucosidase Linked to Diabetes” (Biomolecules, 2025).
Like-named read-outs stand apart in the source and are kept apart here.

What was measured:
[1] = target: T1, α-glucosidase (Saccharomyces cerevisiae, UniProt P53341); assay type: biochemical
From the text: In the experiment, the concentration of the fixed substrate Gal-G2-α-CNP/pNPG solution was 5 mmol/L, and the concentrations of the two enzymes (100, 200, 300, 400 U/L) were used to determine the effect of different concentrations of porphyrins on enzyme activity. The concentration of the enzyme was 200 U/L, and the concentration of the substrate Gal-G2-α-CNP/pNPG solution (2.5, 5, 7.5, 10 mmol/L) was used to determine the effect of different concentrations of porphyrins on the enzyme-catalyzed substrate activity.
Upon identifying the type of inhibition, the kinetic equations vary for different inhibition types.
In the formula, v, Vmax, Km, Ki, and Kis represent the reaction rate, maximum reaction rate, Michaelis constant, and free enzyme inhibition constant, respectively, and the binding enzyme inhibition constant. [S] denotes the substrate concentration. [I] denotes the inhibitor concentration.

[2] = target: T2, α-amylase (Sus scrofa, UniProt P00690); test: Fluorescence quenching, binding and thermodynamics with α-amylase
T2 sequence (P00690 16-511): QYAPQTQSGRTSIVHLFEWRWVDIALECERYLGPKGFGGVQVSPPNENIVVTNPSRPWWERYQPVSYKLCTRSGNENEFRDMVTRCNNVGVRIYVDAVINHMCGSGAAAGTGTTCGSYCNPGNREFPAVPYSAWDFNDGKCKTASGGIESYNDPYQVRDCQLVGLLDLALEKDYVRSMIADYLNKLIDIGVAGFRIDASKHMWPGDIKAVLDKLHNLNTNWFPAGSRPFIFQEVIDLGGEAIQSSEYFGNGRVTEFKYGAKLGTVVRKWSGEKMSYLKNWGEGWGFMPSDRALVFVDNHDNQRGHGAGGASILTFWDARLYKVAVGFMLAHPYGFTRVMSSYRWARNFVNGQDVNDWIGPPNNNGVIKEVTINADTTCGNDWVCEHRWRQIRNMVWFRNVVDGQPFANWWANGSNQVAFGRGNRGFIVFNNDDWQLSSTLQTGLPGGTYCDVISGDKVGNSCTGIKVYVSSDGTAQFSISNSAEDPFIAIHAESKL
From the text: In the α-amylase experiment, a series of porphyrins and amylase (200 U/L) were mixed in a volume ratio of 1:1.
(§1) The Stern–Volmer equation [35] was adopted to determine the quenching mechanisms between six porphyrin compounds and both enzymes in the experimental group, with Formula (6):(6) F0/F=1+Ksv[Q]=1+Kqτ0[Q]
(§2) The Stern–Volmer equation was adapted based on experimental data to more accurately characterize the quenching behavior [36], with Formula (7):(7) F0/F=e^Ksv[Q]=e^Kqτ0[Q]
(§3) In the formula, the fluorescence quenching ratio was calculated as F0/F, where F0 corresponds to the emission intensity of pure α-amylase solution (control) and F denotes the intensity measured after the incremental addition of porphyrin ligands. KSV and Kq denote the Stern–Volmer quenching constant and the bimolecular quenching rate constant, respectively, τ0 (10^−8 s) is the average fluorescence lifetime of the fluorophore in the absence of quencher, and [Q] indicates the concentration of porphyrin compounds.
(§4) Due to the presence of an internal filtration effect, a decrease in the fluorescence intensity of the system may occur. Therefore, all fluorescence data were corrected using Formula (8) to eliminate the internal filtration effect.(8) Fcor=Fobse^(Aex+Aem)/2
(§5) The evaluation of the interaction forces between porphyrin compounds and the two enzymes can be achieved by calculating thermodynamic parameters. When both ΔH^0 and ΔS^0 are positive, the predominant interaction force is hydrophobic. When both ΔH^0 and ΔS^0 are negative, the main forces are hydrogen bonding and van der Waals forces. When ΔH^0 < 0 and ΔS^0 > 0, the primary interaction is electrostatic attraction.
(§6) The thermodynamic parameters were calculated using Formulas (9) and (10), and then the Van’t Hoff plot for the interactions between the porphyrin compounds and the two enzymes was generated by plotting lnKa on the Y-axis versus 1/T on the X-axis.(9) lnKa=−ΔH^0/RT+ΔS^0/R (10) ΔG^0=ΔH^0−TΔS^0=−RTlnKa

[3] = target: T1, α-glucosidase; test: Fluorescence quenching, binding and thermodynamics with α-glucosidase
Protocol: In the α-amylase experiment, a series of porphyrins and amylase (200 U/L) were mixed in a volume ratio of 1:1. In the α-glucosidase experiment, the glucosidase concentration was 400 U/L, mixed in a volume ratio of 1:1; the samples were maintained at three different temperatures (298, 304, and 310 K) for 30 min, with excitation at 280 nm and emission scanning from 300 to 500 nm.
as §1, §2, §3, §4, §5, §6

[4] = target: T2, α-amylase; test: FTIR secondary structure analysis of α-AMY complexes; conditions: enzyme–porphyrin molar ratio 1:2, amide I band
From the text: (§7) A molar ratio of 1:2 (α-amylase/α-glucosidase)–porphyrin solution was placed in a cryocentrifugal concentrator and the dried solid sample was mixed with dry KBr and measured using a Nicolet IS-50 FTIR Spectrometer (ThermoFisher, Waltham, MA, USA) with a scanning range of 4000–400 cm^−1 and a resolution of 4 cm^−1. The overlapping peaks in the amide I band (1700–1600 cm^−1) were further analyzed into multiple feature sub-peaks, and quantitative analysis of the relative content of various secondary structures in proteins using curve fitting methods was performed.

[5] = target: T1, α-glucosidase; test: FTIR secondary structure analysis of α-GLU complexes; conditions: enzyme–porphyrin molar ratio 1:2, amide I band
From the text: as §7

T1 sequence (P53341 whole entry): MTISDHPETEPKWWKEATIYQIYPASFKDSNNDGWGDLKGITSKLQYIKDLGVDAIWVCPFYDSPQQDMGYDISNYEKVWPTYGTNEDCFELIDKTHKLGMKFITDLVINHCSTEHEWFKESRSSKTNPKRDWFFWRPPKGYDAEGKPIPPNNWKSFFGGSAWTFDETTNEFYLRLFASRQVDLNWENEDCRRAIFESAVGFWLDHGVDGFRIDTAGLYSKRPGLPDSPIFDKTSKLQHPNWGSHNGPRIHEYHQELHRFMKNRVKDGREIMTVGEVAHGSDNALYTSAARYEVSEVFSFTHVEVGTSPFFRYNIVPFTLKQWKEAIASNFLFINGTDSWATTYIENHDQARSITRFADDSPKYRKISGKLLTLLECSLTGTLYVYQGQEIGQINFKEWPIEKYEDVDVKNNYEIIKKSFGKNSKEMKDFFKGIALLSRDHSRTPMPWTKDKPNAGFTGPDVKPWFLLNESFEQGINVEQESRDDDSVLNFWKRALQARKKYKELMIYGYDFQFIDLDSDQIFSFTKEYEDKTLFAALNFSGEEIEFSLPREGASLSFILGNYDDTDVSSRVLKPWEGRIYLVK

Oc1ccc(-c2c3nc(c(-c4ccc(O)cc4)c4ccc([nH]4)c(-c4ccc(O)cc4)c4nc(c(-c5ccc(O)cc5)c5ccc2[nH]5)C=C4)C=C3)cc1 [THPP]
Vmax ([1]; C 1 μg/mL): 0.1528 ± 0.0020 ΔOD/min | Vmax ([1]; C 2.5 μg/mL): 0.1013 ± 0.0035 ΔOD/min | Vmax ([1]; C 5 μg/mL): 0.0649 ± 0.0019 ΔOD/min | Vmax ([1]; C 7.5 μg/mL): 0.0489 ± 0.0009 ΔOD/min | Vmax ([1]; C 10 μg/mL): 0.0377 ± 0.0009 ΔOD/min | type of inhibition of α-glucosidase ([1]; Lineweaver–Burk plots): non-competitive inhibition | reversibility of inhibition of α-glucosidase ([1]; enzyme 100–400 U/L, substrate 5 mmol/L): reversible inhibition | quenching mechanism of α-amylase fluorescence ([2]; Stern–Volmer plots, 298–310 K): pure static quenching | Kq ([2]; T 298 K): 8.90 ± 0.06 ×10^12 L/mol/s | Ksv ([2]; T 298 K): 8.90 ± 0.06 ×10^4 L/mol | n (number of binding sites) ([2]; T 298 K): 1.19 | ΔG^0 ([2]; T 298 K): -32.82 ± 0.08 kJ/mol | Kq ([2]; T 304 K): 8.20 ± 0.02 ×10^12 L/mol/s | Ksv ([2]; T 304 K): 8.20 ± 0.02 ×10^4 L/mol | n (number of binding sites) ([2]; T 304 K): 1.16 | ΔG^0 ([2]; T 304 K): -32.37 ± 0.08 kJ/mol | Kq ([2]; T 310 K): 7.64 ± 0.07 ×10^12 L/mol/s | Ksv ([2]; T 310 K): 7.64 ± 0.07 ×10^4 L/mol | n (number of binding sites) ([2]; T 310 K): 1.12 | ΔG^0 ([2]; T 310 K): -31.99 ± 0.07 kJ/mol | ΔH^0 ([2]; Van’t Hoff, 298–310 K): -53.25 ± 0.05 kJ/mol | ΔS^0 ([2]; Van’t Hoff, 298–310 K): −68.61 ± 0.06 J/mol/k | binding constants K ([3]; 310 K): (3.39 ± 0.03) × 10^5 L·mol^−1 | quenching mechanism of α-glucosidase fluorescence ([3]; Stern–Volmer plots, 298–310 K): static quenching | Kq ([3]; T 298 K): 7.40 ± 0.06 ×10^12 L/mol/s | Ksv ([3]; T 298 K): 7.40 ± 0.06 ×10^4 L/mol | n (number of binding sites) ([3]; T 298 K): 1.29 | ΔG^0 ([3]; T 298 K): -35.31 ± 0.10 kJ/mol | Kq ([3]; T 304 K): 6.97 ± 0.06 ×10^12 L/mol/s | Ksv ([3]; T 304 K): 6.97 ± 0.06 ×10^4 L/mol | n (number of binding sites) ([3]; T 304 K): 1.23 | ΔG^0 ([3]; T 304 K): -34.36 ± 0.09 kJ/mol | Kq ([3]; T 310 K): 6.69 ± 0.04 ×10^12 L/mol/s | Ksv ([3]; T 310 K): 6.69 ± 0.04 ×10^4 L/mol | n (number of binding sites) ([3]; T 310 K): 1.16 | ΔG^0 ([3]; T 310 K): -32.82 ± 0.06 kJ/mol | ΔH^0 ([3]; Van’t Hoff, 298–310 K): -97.17 ± 0.09 kJ/mol | ΔS^0 ([3]; Van’t Hoff, 298–310 K): −207.25 ± 0.13 J/mol/k | Random Coil [4]: 17.71 ± 0.07% | α-Helix [4]: 22.24 ± 0.06% | β-Antiparallel [4]: 13.37 ± 0.03% | β-Sheet [4]: 12.92 ± 0.05% | β-Turn [4]: 33.76 ± 0.08% | Random Coil [5]: 23.74 ± 0.06% | α-Helix [5]: 21.19 ± 0.05% | β-Antiparallel [5]: 7.07 ± 0.01% | β-Sheet [5]: 12.79 ± 0.03% | β-Turn [5]: 35.20 ± 0.11%
